The values that follow come from US20230092890A1, “1, 3, 4-Oxadiazole derivative compounds as histone deacetylase 6 inhibitor, and the pharmaceutical composition comprising the same” (Chong Kun Dang Pharmaceutical Corp., priority 2019, published 2023).

Test [1] addresses T1, HDAC6 human recombinant (Homo sapiens, UniProt Q9UBN7).
T1 construct: purchased Calbiochem 382180
T1 sequence (Q9UBN7 1-1215): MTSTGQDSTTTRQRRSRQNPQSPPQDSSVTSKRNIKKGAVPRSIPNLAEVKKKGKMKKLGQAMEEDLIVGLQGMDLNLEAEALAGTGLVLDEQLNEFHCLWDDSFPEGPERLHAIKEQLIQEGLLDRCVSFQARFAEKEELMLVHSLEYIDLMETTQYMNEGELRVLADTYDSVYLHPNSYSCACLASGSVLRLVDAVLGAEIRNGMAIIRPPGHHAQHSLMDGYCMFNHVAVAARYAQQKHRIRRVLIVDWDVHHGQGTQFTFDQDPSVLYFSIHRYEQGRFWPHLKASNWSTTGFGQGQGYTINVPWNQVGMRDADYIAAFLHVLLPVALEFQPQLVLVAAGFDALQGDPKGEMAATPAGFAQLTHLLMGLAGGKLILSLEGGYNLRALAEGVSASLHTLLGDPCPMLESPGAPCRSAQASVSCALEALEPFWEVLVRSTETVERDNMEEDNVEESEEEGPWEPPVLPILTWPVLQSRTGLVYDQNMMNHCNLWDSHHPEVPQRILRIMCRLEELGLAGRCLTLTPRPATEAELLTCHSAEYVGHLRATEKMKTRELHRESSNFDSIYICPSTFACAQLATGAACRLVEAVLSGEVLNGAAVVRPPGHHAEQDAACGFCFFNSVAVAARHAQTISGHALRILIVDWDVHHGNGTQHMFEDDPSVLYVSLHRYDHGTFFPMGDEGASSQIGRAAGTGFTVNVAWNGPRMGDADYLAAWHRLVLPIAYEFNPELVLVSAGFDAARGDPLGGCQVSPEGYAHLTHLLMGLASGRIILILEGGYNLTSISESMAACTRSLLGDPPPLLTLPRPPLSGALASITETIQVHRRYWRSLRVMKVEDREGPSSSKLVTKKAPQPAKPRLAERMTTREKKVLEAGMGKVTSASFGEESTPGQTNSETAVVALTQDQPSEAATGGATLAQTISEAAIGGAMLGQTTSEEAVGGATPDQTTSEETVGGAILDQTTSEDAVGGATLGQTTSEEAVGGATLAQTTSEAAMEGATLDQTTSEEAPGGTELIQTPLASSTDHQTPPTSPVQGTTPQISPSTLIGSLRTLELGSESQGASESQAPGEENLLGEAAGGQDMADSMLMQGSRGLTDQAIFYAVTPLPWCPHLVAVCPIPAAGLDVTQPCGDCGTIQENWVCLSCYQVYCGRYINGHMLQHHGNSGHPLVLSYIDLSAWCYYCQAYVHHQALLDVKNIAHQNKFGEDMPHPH
The experiment in a line: HDAC enzyme activity inhibition (in vitro), HDAC6 assay. To be noted: samples at 0.1, 1, 10, 100 and 1000 nM; 37° C. 60 minutes; fluorescence Ex 390, Em 460; read-out: HDAC6 IC50. Format: biochemical. The gist of the method: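 Fluorescence (Ex 390, Em 460) read after a 37° C, 60 min enzyme reaction and a further 30 min developer step at 37° C. Uses recombinant human HDAC6; HDAC1 arm dosed at 100, 1000, 10000 nM.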

In test [2] the target is T2, HDAC1 (Homo sapiens, UniProt Q13547).
T2 construct: purchased Enzolifesciences BML-AK511
T2 sequence (Q13547 whole entry): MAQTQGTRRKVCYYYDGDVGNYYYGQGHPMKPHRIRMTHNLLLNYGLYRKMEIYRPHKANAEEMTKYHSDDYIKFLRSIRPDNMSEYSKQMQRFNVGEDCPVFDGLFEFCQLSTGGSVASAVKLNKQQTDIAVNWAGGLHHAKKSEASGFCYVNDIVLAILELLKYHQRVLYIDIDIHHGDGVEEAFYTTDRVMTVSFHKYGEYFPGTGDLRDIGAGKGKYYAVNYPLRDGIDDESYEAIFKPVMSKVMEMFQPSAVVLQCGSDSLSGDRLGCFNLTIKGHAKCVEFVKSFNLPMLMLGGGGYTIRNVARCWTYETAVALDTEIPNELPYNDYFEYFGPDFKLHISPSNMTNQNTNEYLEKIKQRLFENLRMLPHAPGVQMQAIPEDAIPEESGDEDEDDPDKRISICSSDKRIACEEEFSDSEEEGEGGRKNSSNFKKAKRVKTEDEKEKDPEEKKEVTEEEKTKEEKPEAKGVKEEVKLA
The experiment in a line: HDAC enzyme activity inhibition (in vitro), HDAC1 Fluorimetric Drug Discovery Assay Kit. It counts as biochemical. To be noted: samples at 100, 1000 and 10000 nM; 37° C. 60 minutes; fluorescence Ex 390, Em 460; read-out: HDAC1 IC50. The gist of the method:
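Fluorescence read-out (Ex 390/Em 460) after developer step, 30 min at 37° C, following a 60-min 37° C enzyme reaction. Test concentrations: HDAC1 kit, 100–10000 nM (three levels); recombinant human HDAC6, 0.1–1000 nM (five levels).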

SMILES strings stand for the structures.

For the compound `CN1CCC(n2c(=O)n(Cc3ccc(-c4nnc(C(F)F)o4)cc3F)c3cc(Cl)c(Cl)cc32)CC1` [Compound 87, 5,6-dichloro-1-(4-(5-(difluoromethyl)-1,3,4-oxadiazole-2-yl)-2-fluorobenzyl)-3-(1-methylpiperidine-4-yl)-1,3-dihydro-2H-benzo[d]imidazole-2-one], the IC50 is 63 nM in test [1] and above 10000 nM in test [2].
In the same order, the values of `O=c1n(Cc2ccc(-c3nnc(C(F)F)o3)cc2F)c2cc(Cl)c(Cl)cc2n1C1CCN(C2COC2)CC1` [Compound 88, 5,6-dichloro-1-(4-(5-(difluoromethyl)-1,3,4-oxadiazole-2-yl)-2-fluorobenzyl)-3-(1-(oxetan-3-yl)piperidine-4-yl)-1,3-dihydro-2H-benzo[d]imidazole-2-one] are 38 nM and above 10000 nM.
`CN1CCC(n2c(=O)n(Cc3ccc(-c4nnc(C(F)F)o4)cn3)c3cc(C(F)(F)F)ccc32)CC1` [Compound 89, 3-((5-(5-(difluoromethyl)-1,3,4-oxadiazole-2-yl)pyridine-2-yl)methyl)-1-(1-methylpiperidine-4-yl)-5-(trifluoromethyl)-1,3-dihydro-2H-benzo[d]imidazole-2-one]: the IC50 in test [1] was 38 nM; in test [2] it was above 10000 nM.
Turning to `O=c1n(Cc2ccc(-c3nnc(C(F)F)o3)cn2)c2cc(C(F)(F)F)ccc2n1C1CCN(C2COC2)CC1` [Compound 90, 3-((5-(5-(difluoromethyl)-1,3,4-oxadiazole-2-yl)pyridine-2-yl)methyl)-1-(1-(oxetan-3-yl)piperidine-4-yl)-5-(trifluoromethyl)-1,3-dihydro-2H-benzo[d]imidazole-2-one], the IC50 was 31 nM in test [1] and above 10000 nM in test [2].
As to `CN1CCC(n2c(=O)n(Cc3ccc(-c4nnc(C(F)F)o4)cc3F)c3cc(C(F)(F)F)ccc32)CC1` [Compound 91], the IC50 is 58 nM in test [1] and above 10000 nM in test [2].
As for `O=c1n(Cc2ccc(-c3nnc(C(F)F)o3)cc2F)c2cc(C(F)(F)F)ccc2n1C1CCN(C2COC2)CC1` [Compound 92, 3-(4-(5-(difluoromethyl)-1,3,4-oxadiazole-2-yl)-2-fluorobenzyl)-1-(1-(oxetan-3-yl)piperidine-4-yl)-5-(trifluoromethyl)-1,3-dihydro-2H-benzo[d]imidazole-2-one], the results for the IC50 in test [1] and in test [2] were 62 nM and above 10000 nM, respectively.
On to `CN1CCC(n2c(=O)n(Cc3ccc(-c4nnc(C(F)F)o4)cc3F)c3cc(F)c(F)cc32)CC1` [Compound 93, 1-(4-(5-(difluoromethyl)-1,3,4-oxadiazole-2-yl)-2-fluorobenzyl)-5,6-difluoro-3-(1-methylpiperidine-4-yl)-1,3-dihydro-2H-benzo[d]imidazole-2-one], for which the IC50 was 40 nM in test [1] and above 10000 nM in test [2].
As to `O=c1n(Cc2ccc(-c3nnc(C(F)F)o3)cc2F)c2cc(F)c(F)cc2n1C1CCN(C2COC2)CC1` [Compound 94, 1-(4-(5-(difluoromethyl)-1,3,4-oxadiazole-2-yl)-2-fluorobenzyl)-5,6-difluoro-3-(1-(oxetan-3-yl)piperidine-4-yl)-1,3-dihydro-2H-benzo[d]imidazole-2-one], the IC50 is 45 nM in test [1] and above 10000 nM in test [2].
In the case of `CN1CCC(n2c(=O)n(Cc3ccc(-c4nnc(C(F)F)o4)cc3)c3cc(F)c(F)cc32)CC1` [Compound 95, 1-(4-(5-(difluoromethyl)-1,3,4-oxadiazole-2-yl)benzyl)-5,6-difluoro-3-(1-methylpiperidine-4-yl)-1,3-dihydro-2H-benzo[d]imidazole-2-one], the values for the IC50 in test [1] and in test [2] were 51 nM and above 10000 nM, respectively.
On to `O=c1n(Cc2ccc(-c3nnc(C(F)F)o3)cc2)c2cc(F)c(F)cc2n1C1CCN(C2COC2)CC1` [Compound 96, 1-(4-(5-(difluoromethyl)-1,3,4-oxadiazole-2-yl)benzyl)-5,6-difluoro-3-(1-(oxetan-3-yl)piperidine-4-yl)-1,3-dihydro-2H-benzo[d]imidazole-2-one], for which the IC50 in test [1] was 36 nM; in test [2], above 10000 nM.
For the compound `CN1CCC(n2c(=O)n(Cc3ccc(-c4nnc(C(F)F)o4)cn3)c3ccc(Cl)cc32)CC1` [Compound 97, 5-chloro-1-((5-(5-(difluoromethyl)-1,3,4-oxadiazole-2-yl)pyridine-2-yl)methyl)-3-(1-methylpiperidine-4-yl)-1,3-dihydro-2H-benzo[d]imidazole-2-one], the IC50 in test [1] is 32 nM; in test [2], above 10000 nM.
For the compound `O=c1n(Cc2ccc(-c3nnc(C(F)F)o3)cn2)c2ccc(Cl)cc2n1C1CCN(C2COC2)CC1` [Compound 98, 5-chloro-1-((5-(5-(difluoromethyl)-1,3,4-oxadiazole-2-yl)pyridine-2-yl)methyl)-3-(1-(oxetan-3-yl)piperidine-4-yl)-1,3-dihydro-2H-benzo[d]imidazole-2-one], the IC50 in test [1] was 28 nM; in test [2], above 10000 nM.
For the compound `CN1CCC(n2c(=O)n(Cc3ccc(-c4nnc(C(F)F)o4)cc3)c3ccc(Cl)cc32)CC1` [Compound 99, 5-chloro-1-(4-(5-(difluoromethyl)-1,3,4-oxadiazole-2-yl)benzyl)-3-(1-methylpiperidine-4-yl)-1,3-dihydro-2H-benzo[d]imidazole-2-one], the figures for the IC50 in test [1] and in test [2] were 37 nM and above 10000 nM, respectively.
`O=c1n(Cc2ccc(-c3nnc(C(F)F)o3)cc2)c2ccc(Cl)cc2n1C1CCN(C2COC2)CC1` [Compound 100, 5-chloro-1-(4-(5-(difluoromethyl)-1,3,4-oxadiazole-2-yl)benzyl)-3-(1-(oxetan-3-yl)piperidine-4-yl)-1,3-dihydro-2H-benzo[d]imidazole-2-one]: the values for the IC50 in test [1] and in test [2] were 39 nM and above 10000 nM, respectively.
For the compound `CN1CCC(n2c(=O)n(Cc3ccc(-c4nnc(C(F)F)o4)cc3F)c3ccc(Cl)cc32)CC1` [Compound 101, 5-chloro-1-(4-(5-(difluoromethyl)-1,3,4-oxadiazole-2-yl)-2-fluorobenzyl)-3-(1-methylpiperidine-4-yl)-1,3-dihydro-2H-benzo[d]imidazole-2-one], the concentration for half-maximal inhibition (IC50) in test [1] is 44 nM; in test [2], above 10000 nM.
As for `O=c1n(Cc2ccc(-c3nnc(C(F)F)o3)cc2F)c2ccc(Cl)cc2n1C1CCN(C2COC2)CC1` [Compound 102, 5-chloro-1-(4-(5-(difluoromethyl)-1,3,4-oxadiazole-2-yl)-2-fluorobenzyl)-3-(1-(oxetan-3-yl)piperidine-4-yl)-1,3-dihydro-2H-benzo[d]imidazole-2-one], the IC50 in test [1] was 59 nM; in test [2] it was above 10000 nM.
With `CN1CCC(n2c(=O)n(Cc3ccc(-c4nnc(C(F)F)o4)cc3F)c3ncccc32)CC1` [Compound 103, 3-(4-(5-(difluoromethyl)-1,3,4-oxadiazole-2-yl)-2-fluorobenzyl)-1-(1-methylpiperidine-4-yl)-1,3-dihydro-2H-imidazo[4,5-b]pyridine-2-one], the IC50 in test [1] is 342 nM; in test [2] it was above 10000 nM.
Turning to `O=c1n(Cc2ccc(-c3nnc(C(F)F)o3)cc2F)c2ncccc2n1C1CCN(C2COC2)CC1` [Compound 104, 3-(4-(5-(difluoromethyl)-1,3,4-oxadiazole-2-yl)-2-fluorobenzyl)-1-(1-(oxetan-3-yl)piperidine-4-yl)-1,3-dihydro-2H-imidazo[4,5-b]pyridine-2-one], the IC50 was 283 nM in test [1] and above 10000 nM in test [2].
With `CN1CCC(n2c(=O)n(Cc3ccc(-c4nnc(C(F)F)o4)cc3)c3ncccc32)CC1` [Compound 105, 3-(4-(5-(difluoromethyl)-1,3,4-oxadiazole-2-yl)benzyl)-1-(1-methylpiperidine-4-yl)-1,3-dihydro-2H-imidazo[4,5-b]pyridine-2-one], the IC50 in test [1] was 640 nM; in test [2], above 10000 nM.
